# PMC4697807, “Novel Zn^2+ Modulated GPR39 Receptor Agonists Do Not Drive Acute Insulin Secretion in Rodents” (PLoS ONE, 2015)
# Read-outs that look alike come from different tables or passages of the source.
# How the values were obtained:
# GPR39 (NIT-1 cells) = target: T1, GPR39 (NIT-1 cells) (Mus musculus, UniProt Q5U431); assay: IP1 assay in NIT-1 cells endogenously expressing GPR39; format: cell-based; conditions: for Emax: read-out: Emax relative to the 100% efficacy reference AZ1395
# T1 construct: NIT-1 cells endogenously expressing GPR39; endogenous in cells; host or cells: NIT-1 (ATCC CRL-2055)
# T1 sequence (Q5U431 1-456): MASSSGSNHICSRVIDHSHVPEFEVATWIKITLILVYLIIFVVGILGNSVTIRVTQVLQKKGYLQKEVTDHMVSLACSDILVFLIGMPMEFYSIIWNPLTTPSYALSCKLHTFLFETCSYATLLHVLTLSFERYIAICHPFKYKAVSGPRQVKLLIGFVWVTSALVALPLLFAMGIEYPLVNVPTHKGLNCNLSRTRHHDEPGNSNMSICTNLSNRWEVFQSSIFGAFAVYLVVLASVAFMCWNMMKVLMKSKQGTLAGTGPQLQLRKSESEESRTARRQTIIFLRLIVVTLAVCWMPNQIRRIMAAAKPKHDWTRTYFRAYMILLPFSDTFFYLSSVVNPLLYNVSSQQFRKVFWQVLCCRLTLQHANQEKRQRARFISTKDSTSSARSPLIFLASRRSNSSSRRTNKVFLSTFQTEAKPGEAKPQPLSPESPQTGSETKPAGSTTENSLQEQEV
# Description: (§1) Full length human (AF034633), rat (DM091294) and mouse (BC085285) GPR39 (GeneArt–Life Technologies, Carlsbad, CA) were subcloned into the pIRESneo3 vector (Clontech, Mountain View, CA). The resulting expression vectors hGPR39-, rGPR39- and mGPR39-pIRESneo3 were transfected into HEK293s cells (ATCC CRL-1573) using Lipofectamine 2000 (Life Technologies). Individual clones were isolated using flow cytometry with a FACSVantage SE DIVA (Becton Dickinson, Franklin Lakes, NJ) and clones were chosen based on responses to Zn^2+ measured in a cAMP assay (see below). […] HEK293s-derived cell lines were cultured at 37°C, 10% CO2 and 95% humidity in DMEM supplemented with 10% FBS and 600 μg/ml Geneticin (Life Technologies). The mouse pancreas epithelial cell line NIT-1 (ATCC CRL-2055) with endogenous expression of GPR39 was cultured at 37°C, 5% CO2, and 95% humidity in Ham´s F12 (Life Technologies) supplemented with 10% FBS.
# IP1 assays were performed using IP-One Tb kits (CisBio). IP1 production was detected by HTRF as described above. Buffers and reagents were according to manufacturers’ protocols except LiCl concentrations in stimulation buffer which were 50 mM in assays employing HEK293s-hGPR39 cells and 20 mM in assays using NIT-1 cells. For assays using HEK293s-hGPR39 cells, 12,500 cells per well were dispensed into small-volume 384-well plates (Greiner) and IP1 production was stimulated in the presence of compounds for 30 min at 37 °C in a total volume of 20 μl. For assays using NIT-1 cells, 25,000 cells per well were seeded into poly-D-lysine coated 384-well plates (Becton-Dickinson) and cultured in Ham´s F12 medium with 10% FBS. After 48 h, cells were washed with stimulation buffer and IP1 production stimulated in the presence of compounds for 45 min at 37 °C in a total volume of 60 μl.
# (§2) Concentration response data were fitted with a four parameter logistic fit using Eq 1, y=A+((B−A)/1+((C/x)^D))) (1) where A is no activation, B is full activation, C is the EC50 and D is the Hill slope.
# GPR39 = target: T2, GPR39 (Homo sapiens, UniProt O43194); assay: cAMP assay (HTRF), HEK293s-hGPR39 cells; format: cell-based; design: Full length human (AF034633), rat (DM091294) and mouse (BC085285) GPR39; expressed in transfected cells; host or cells: HEK293s (ATCC CRL-1573), pIRESneo3 vector, selected clones; conditions: for Efficacy at 33 μM: AZ1395 100% reference
# T2 sequence (O43194 1-453): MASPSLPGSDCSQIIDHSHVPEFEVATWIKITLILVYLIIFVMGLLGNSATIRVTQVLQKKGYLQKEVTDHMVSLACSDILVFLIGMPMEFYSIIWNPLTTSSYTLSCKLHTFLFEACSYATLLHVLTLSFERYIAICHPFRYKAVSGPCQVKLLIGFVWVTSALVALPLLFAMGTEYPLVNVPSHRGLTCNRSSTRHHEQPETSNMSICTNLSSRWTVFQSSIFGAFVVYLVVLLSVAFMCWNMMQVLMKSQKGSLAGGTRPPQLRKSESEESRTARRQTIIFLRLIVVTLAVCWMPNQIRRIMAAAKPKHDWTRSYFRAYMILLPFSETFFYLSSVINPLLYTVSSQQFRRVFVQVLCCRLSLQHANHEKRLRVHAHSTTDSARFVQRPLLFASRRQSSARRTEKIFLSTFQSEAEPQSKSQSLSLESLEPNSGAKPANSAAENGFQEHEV
# Description: as §1
# Measurements of cAMP production were performed using homogeneous time resolved fluorescence (HTRF) cAMP dynamic kits (CisBio, Codolet, France). All buffers and reagents were according to manufacturer’s protocol. In short, 0.1 μl of compounds in DMSO were added to small-volume 384-well plates (Greiner, Frickenhausen, Germany). 12,000 (5 μl) cells in Hank’s balanced salt solution (HBSS) (Life Technologies) and 20 mM HEPES (pH7.4; Life Technologies) were added per well. The production of cAMP was stimulated for 75 min at 37°C by addition of 5 μl 3-isobutyl-1-methylxanthine (0.375 mM final concentration; Sigma-Aldrich, St Louis, MO) and ZnCl2 (0 to 30 μM; Sigma). The reaction was stopped by addition of 5 μl cAMP-d2 and 5 μl anti-cAMP cryptate. The cAMP production was detected by HTRF (λex = 340 nm, λem = 665 and 615 nm) using a Pherastar (BMG Labtech, Ortenberg, Germany).
# as §2
# [1] = Zn^2+ by itself, read-out: EC50
# [2] = absence (w/o) of Zn^2+, read-out: EC50
# [3] = presence of 5 μM Zn^2+, read-out: EC50
# [4] = presence of 5 μM Zn^2+, read-out: pEC50 ± SD (converted)
Structure (SMILES),Efficacy at 33 μM (GPR39 (NIT-1 cells); Zn^2+ by itself),agonistic effects (GPR39 (NIT-1 cells); Zn^2+ by itself),EC50 (GPR39 (NIT-1 cells); [1]),pEC50 ± SD (GPR39; Zn^2+ by itself),EC50 (GPR39; [1]),Efficacy at 33 μM (GPR39 (NIT-1 cells); absence (w/o) of Zn^2+),EC50 (GPR39 (NIT-1 cells); [2]),Efficacy at 33 μM (GPR39 (NIT-1 cells); presence of 5 μM Zn^2+),EC50 (GPR39 (NIT-1 cells); [3]),Efficacy at 33 μM (GPR39; absence (w/o) of Zn^2+),EC50 (GPR39; [2]),EC50 (GPR39; [3]),Emax (GPR39 (NIT-1 cells); presence of 5 μM Zn^2+),EC50 (GPR39 (NIT-1 cells); [4]),EC50 (GPR39; [4])
[Zn+2] [Zn^2+],0%,no agonistic effects,> 33 µM,(4.92 ± 0.13),12 µM,,,,,,,,,,
"N#Cc1ccc(OCCn2ccnc2)c(OCCn2ccnc2)c1 [AZ1395, 3,4-bis-(2-imidazol-1-ylethoxy)-benzonitrile]",,,,,,0%,> 33 µM,100%,> 33 µM,81%,> 33 µM,0.49 µM,,,
"Cc1nc2c(C(=O)O)cnn2c(O)c1Cc1ccc(Cl)cc1 [AZ4237, 6-[(4-chlorophenyl)methyl]-7-hydroxy-5-methyl-pyrazolo[1,5-a]pyrimidine-3-carboxylic acid]",,,,,,8%,> 33 µM,,,49%,> 33 µM,,50%,0.24 µM,0.389 µM
"Cc1nc(-c2nc3c(c(=O)[nH]2)CN(C(=O)c2cccc(Cl)c2F)CC3)cs1 [AZ7914, 6-(3-chloro-2-fluoro-benzoyl)-2-(2-methylthiazol-4-yl)-3,5,7,8-tetrahydropyrido-[4,3-d]pyrimidin-4-one]",,,,,,9%,> 33 µM,,0.65 µM,21%,> 33 µM,,47%,,2.29 µM
